# In US4891370A, “Cephalosporin derivatives as anti-inflammatory agents” (Merck & Co., Inc., priority 1981, dated 1990):
# Target: T1, Human Polymorphonuclear Leukocyte Elastase (Homo sapiens, UniProt P08246)
# T1 construct: Crude extract of human polymorphonuclear leukocytes (PMN) containing elastase activity; endogenous in cells; host or cells: human polymorphonuclear leukocytes (crude extract)
# T1 sequence (P08246 30-267): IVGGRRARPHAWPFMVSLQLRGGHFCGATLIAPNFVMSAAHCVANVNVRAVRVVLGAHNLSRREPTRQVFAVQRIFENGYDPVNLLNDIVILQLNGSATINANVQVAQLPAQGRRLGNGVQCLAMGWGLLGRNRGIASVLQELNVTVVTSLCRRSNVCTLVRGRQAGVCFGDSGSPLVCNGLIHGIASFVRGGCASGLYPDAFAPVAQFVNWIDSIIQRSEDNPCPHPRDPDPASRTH
# Test: Enzyme assay for inhibition of human PMN elastase via hydrolysis of Boc-AAPAN
# Format: biochemical
# Settings: % decrease in ΔOD/min at 410 mμ within 2 minutes vs control, crude PMN extract; for inhibition at 50 µg/mL: Conc. of compound 50 μg/ml
# Experimental: Protocol--Enzyme Assays for the Inhibition of Human Polymorphonuclear Leukocyte Elastase Via Hydrolysis of N-t-Boc-alanyl-alanyl-prolylanaline-pnitroanilide Reagents:
# 0.05M TES (N-tris[hydroxymethyl]methyl-2-amino-ethanesulfonic acid) Buffer, pH 7.5.
# 0.2 mM N-t-Boc-alanyl-alanyl-Prolyl-Alanine-p-nitroanilide (Boc-AAPAN).
# To prepare substrate, the solid (m.w. 550) was first dissolved in 10.0 ml DMSO. Buffer at pH 7.5 was then added to a final volume of 100 ml.
# Crude extract of human polymorphonuclear leukocytes (PMN) containing elastase activity.
# Inhibitors (cephalosporins) to be tested dissolved in DMSO just before use.
# To 1.0 ml of 0.2 mM Boc-AAPAN in a cuvette, 0.01-0.1 ml of DMSO with or without inhibitor was added. After mixing, a measurement was taken at 410 mμ to detect any spontaneous hydrolysis due to presence of test compound. 0.05 Milliliters of PMN extract was then added and the ΔOD/min at 410 mμ was measured and recorded. Beckman model 35 spectrophotometer was used.
# The elastase activity in the crude PMN extract may vary from one preparation to another. A control of each new batch is run, and the volume added in the assay procedure is adjusted according to activity.
inhibition at 50 µg/mL [%],inhibition at 5 µg/mL (Conc. of compound 5 μg/ml) [%],inhibition at 10 µg/mL (Conc. of compound 10 μg/ml) [%],inhibition at 25 µg/mL (Conc. of compound 25 μg/ml) [%],SMILES
56,–,–,–,C=CCCOC(=O)C1=C(COC(C)=O)CSC2C(NC(=O)Cc3cccs3)C(=O)N12 (centres unmarked)
37,–,–,–,COC1(NC(=O)Cc2cccs2)C(=O)N2C(C(=O)OCC(=O)COC(=O)C(C)(C)C)=C(COC(N)=O)CSC21 (centres unmarked)
41,–,–,–,COC1(NC(=O)CSCC#N)C(=O)N2C(C(=O)OC3OC(=O)c4ccccc43)=C(CSc3nnnn3C)CSC21 (centres unmarked)
81,41,53,78,CO[C@@]1(NC(=O)CSCC#N)C(=O)N2C(C(=O)OCOC(=O)C(C)(C)C)=C(CSc3nnnn3C)CSC21 (some centres unmarked)

SMILES,inhibition at 50 µg/mL [%],inhibition at 5 µg/mL (Conc. of compound 5 μg/ml) [%],inhibition at 10 µg/mL (Conc. of compound 10 μg/ml) [%],inhibition at 25 µg/mL (Conc. of compound 25 μg/ml) [%]
C=CCCOC(=O)C1=C(COC(N)=O)CSC2N1C(=O)C2(NC(=O)Cc1cccs1)OC (centres unmarked),50,–,–,–
